From the supplement of paper PMC12076712

Experiments:
Assay in all cases: pIC50, kinobeads binding competition
FRK = FRK (UniProt P42685); conditions: cell material: Lysate mix
Summary of the method: (§1)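 Live Jurkat cells were treated with nine compound concentrations (top 30 μM, 1:4 steps) or DMSO for 60 min at 37 °C before lysis. Alternatively, Jurkat lysate or a 1:1:1:1 HEK293/K-562/HepG2/placenta lysate mix was incubated with nine concentrations (top 30 μM, 1:5 steps) for 60 min at 4 °C. Kinobeads-bound proteins were digested and quantified by TMT10 LC-MS/MS. pIC50 came from logistic dose-response fits (R drc package) of fold changes versus DMSO, in biological duplicates.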

UniProt Q96GD4 = target: UniProt Q96GD4
Summary of the method: as §1

UniProt Q99759 = target: T1, UniProt Q99759
T1 sequence (whole entry): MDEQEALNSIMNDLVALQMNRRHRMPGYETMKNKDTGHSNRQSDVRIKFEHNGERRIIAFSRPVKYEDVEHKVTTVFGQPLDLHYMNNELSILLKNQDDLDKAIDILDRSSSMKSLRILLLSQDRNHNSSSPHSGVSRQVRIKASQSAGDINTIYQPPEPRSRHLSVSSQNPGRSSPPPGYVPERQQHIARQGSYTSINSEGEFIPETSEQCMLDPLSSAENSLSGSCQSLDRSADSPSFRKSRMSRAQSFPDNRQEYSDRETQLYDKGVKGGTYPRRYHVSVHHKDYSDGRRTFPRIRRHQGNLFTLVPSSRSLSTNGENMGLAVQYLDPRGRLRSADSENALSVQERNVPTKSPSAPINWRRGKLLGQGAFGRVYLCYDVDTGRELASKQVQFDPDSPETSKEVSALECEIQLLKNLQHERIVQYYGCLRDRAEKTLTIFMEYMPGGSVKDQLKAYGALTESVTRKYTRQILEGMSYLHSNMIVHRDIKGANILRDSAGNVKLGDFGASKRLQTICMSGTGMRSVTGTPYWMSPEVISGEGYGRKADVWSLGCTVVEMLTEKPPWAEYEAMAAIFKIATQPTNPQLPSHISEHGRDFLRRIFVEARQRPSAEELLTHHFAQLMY
Summary of the method: as §1

UniProt Q14164 = target: T2, UniProt Q14164
T2 sequence (whole entry): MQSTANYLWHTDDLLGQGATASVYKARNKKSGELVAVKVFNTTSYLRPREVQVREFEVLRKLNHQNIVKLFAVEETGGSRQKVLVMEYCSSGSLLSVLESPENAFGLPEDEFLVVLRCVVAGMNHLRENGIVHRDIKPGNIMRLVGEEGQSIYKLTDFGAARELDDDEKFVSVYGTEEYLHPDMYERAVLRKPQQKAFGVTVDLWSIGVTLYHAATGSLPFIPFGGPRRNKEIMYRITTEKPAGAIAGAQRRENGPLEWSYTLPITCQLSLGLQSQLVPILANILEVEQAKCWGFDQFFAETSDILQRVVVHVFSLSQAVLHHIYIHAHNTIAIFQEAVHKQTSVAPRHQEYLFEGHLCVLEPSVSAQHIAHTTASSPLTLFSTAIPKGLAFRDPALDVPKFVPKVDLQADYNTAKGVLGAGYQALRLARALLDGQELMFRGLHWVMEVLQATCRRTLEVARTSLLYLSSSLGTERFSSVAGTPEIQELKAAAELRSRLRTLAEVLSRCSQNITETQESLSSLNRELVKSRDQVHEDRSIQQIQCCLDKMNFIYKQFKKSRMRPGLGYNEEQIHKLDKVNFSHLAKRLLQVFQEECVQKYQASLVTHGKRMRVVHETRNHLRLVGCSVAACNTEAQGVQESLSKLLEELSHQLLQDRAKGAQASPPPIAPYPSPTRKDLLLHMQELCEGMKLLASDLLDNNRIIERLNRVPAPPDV
Summary of the method: as §1

UniProt Q02763 = conditions: cell material: Lysate mix
Summary of the method: as §1

ULK1 = target: T3, ULK1 (UniProt O75385)
T3 sequence (whole entry): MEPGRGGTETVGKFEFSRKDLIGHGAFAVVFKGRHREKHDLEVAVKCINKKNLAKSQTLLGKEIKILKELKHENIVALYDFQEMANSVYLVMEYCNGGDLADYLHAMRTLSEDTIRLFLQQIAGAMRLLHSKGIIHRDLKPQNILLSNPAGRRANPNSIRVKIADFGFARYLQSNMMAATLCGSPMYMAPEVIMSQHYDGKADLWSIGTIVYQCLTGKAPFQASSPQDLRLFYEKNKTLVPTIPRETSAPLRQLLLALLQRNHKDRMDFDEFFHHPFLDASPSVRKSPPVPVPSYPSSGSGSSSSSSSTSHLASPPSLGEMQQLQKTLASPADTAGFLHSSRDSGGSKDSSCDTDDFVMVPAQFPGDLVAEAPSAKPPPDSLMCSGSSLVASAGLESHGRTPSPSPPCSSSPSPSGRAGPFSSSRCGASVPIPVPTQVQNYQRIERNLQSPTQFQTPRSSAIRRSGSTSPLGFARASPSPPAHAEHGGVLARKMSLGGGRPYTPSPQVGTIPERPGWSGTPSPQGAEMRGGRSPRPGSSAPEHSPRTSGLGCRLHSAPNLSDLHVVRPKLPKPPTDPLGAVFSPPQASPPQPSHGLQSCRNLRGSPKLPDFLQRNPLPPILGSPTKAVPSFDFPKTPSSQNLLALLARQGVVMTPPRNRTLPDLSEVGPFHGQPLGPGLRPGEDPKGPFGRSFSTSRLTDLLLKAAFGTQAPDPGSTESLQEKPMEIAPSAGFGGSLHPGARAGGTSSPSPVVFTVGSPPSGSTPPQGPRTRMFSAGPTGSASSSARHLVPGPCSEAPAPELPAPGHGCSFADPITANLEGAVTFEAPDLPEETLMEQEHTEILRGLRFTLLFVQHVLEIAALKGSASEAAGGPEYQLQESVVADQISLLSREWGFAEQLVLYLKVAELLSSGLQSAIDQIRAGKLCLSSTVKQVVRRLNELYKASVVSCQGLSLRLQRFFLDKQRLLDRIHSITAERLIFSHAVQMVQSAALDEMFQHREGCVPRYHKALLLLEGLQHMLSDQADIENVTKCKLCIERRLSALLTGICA
Summary of the method: as §1

Fyn = Fyn (UniProt P06241)
Summary of the method: as §1

CDK9 = CDK9 (UniProt P50750)
Summary of the method: as §1

Fyn, sequence (P06241 whole entry, looked up): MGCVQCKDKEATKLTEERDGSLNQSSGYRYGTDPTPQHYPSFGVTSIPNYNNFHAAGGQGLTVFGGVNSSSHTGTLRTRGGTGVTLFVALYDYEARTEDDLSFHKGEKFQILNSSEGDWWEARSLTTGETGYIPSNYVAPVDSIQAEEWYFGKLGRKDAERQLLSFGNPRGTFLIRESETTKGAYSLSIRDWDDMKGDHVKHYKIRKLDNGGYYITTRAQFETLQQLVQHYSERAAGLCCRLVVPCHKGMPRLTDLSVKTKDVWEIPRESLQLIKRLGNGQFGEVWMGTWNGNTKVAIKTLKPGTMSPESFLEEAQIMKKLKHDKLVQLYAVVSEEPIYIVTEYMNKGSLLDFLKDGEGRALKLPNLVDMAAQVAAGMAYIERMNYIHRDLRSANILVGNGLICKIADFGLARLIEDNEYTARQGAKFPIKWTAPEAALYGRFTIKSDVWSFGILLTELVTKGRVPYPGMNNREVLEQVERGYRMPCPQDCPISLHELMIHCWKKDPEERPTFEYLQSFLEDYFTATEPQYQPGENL
FRK, sequence (P42685 whole entry): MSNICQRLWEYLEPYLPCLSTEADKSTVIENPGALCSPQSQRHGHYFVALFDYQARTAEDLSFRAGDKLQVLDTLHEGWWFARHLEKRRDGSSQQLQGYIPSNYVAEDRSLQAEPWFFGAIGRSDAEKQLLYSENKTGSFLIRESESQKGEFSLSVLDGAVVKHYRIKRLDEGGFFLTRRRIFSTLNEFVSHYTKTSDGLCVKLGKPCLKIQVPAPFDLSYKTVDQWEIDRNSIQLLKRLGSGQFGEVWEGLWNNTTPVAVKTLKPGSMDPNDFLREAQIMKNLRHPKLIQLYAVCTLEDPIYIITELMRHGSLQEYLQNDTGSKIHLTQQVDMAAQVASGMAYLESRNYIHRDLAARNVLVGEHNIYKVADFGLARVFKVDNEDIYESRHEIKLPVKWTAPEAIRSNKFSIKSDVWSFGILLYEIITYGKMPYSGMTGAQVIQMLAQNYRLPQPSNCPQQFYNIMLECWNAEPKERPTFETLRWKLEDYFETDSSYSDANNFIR
UniProt Q96GD4, sequence (Q96GD4 whole entry): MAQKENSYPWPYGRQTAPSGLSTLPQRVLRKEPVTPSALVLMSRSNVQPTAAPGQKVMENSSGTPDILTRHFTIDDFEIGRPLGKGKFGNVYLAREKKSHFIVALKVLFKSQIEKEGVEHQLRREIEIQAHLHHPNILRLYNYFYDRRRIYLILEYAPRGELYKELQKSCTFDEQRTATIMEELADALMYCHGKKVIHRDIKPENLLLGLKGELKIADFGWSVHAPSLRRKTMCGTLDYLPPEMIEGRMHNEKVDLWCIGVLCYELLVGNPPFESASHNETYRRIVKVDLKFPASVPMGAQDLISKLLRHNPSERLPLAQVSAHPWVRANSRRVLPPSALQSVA
CDK9, sequence (P50750 whole entry): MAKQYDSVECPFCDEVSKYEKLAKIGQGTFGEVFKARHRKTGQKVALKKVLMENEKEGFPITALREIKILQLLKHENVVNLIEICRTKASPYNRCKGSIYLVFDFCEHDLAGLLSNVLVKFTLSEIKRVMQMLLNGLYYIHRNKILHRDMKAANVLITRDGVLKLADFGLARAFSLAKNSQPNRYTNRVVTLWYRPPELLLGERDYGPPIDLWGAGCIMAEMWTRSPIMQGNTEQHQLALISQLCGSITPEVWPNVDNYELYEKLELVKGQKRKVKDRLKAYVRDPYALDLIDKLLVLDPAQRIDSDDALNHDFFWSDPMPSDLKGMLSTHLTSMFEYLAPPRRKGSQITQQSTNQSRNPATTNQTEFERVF
UniProt Q02763, sequence (Q02763 whole entry): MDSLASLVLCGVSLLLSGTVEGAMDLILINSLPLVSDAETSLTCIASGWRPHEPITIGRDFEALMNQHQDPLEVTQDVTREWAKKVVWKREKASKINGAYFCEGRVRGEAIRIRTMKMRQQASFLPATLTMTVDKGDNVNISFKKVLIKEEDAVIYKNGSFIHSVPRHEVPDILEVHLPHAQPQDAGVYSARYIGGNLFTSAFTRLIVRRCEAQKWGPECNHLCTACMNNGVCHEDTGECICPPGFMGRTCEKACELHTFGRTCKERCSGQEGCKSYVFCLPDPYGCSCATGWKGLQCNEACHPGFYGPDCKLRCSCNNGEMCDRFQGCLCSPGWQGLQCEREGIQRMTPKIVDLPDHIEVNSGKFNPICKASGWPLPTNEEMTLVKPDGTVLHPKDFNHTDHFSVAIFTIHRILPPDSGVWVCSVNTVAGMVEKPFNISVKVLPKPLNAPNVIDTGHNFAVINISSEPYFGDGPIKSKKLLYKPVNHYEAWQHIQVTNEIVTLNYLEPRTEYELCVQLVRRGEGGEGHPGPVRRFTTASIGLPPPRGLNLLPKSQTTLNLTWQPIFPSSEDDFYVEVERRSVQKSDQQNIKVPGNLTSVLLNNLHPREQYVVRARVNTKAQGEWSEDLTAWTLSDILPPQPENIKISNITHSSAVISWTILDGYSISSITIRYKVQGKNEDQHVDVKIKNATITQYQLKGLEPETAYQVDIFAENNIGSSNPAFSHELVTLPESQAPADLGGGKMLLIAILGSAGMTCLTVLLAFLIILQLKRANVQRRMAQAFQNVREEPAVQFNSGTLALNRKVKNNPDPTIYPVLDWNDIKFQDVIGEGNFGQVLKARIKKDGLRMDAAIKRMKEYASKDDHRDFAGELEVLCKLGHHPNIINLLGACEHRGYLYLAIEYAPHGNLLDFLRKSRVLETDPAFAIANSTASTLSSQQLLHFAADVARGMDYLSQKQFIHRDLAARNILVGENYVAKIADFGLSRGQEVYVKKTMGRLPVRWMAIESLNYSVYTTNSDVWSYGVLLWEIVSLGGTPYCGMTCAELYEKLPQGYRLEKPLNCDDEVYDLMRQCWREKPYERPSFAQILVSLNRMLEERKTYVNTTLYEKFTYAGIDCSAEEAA

Row | SMILES | pIC50 (FRK) | pIC50 (UniProt Q96GD4; cell material: Jurkat cells) | pIC50 (UniProt Q96GD4; cell material: Jurkat lysate) | pIC50 (UniProt Q96GD4; cell material: Lysate mix) | pIC50 (UniProt Q99759; cell material: Jurkat cells) | pIC50 (UniProt Q99759; cell material: Jurkat lysate) | pIC50 (UniProt Q99759; cell material: Lysate mix) | pIC50 (UniProt Q14164; cell material: Jurkat cells) | pIC50 (UniProt Q14164; cell material: Jurkat lysate) | pIC50 (UniProt Q14164; cell material: Lysate mix) | pIC50 (UniProt Q02763) | pIC50 (ULK1; cell material: Jurkat lysate) | pIC50 (ULK1; cell material: Lysate mix) | pIC50 (Fyn; cell material: Jurkat cells) | pIC50 (Fyn; cell material: Lysate mix) | pIC50 (CDK9; cell material: Jurkat cells) | pIC50 (CDK9; cell material: Jurkat lysate) | pIC50 (CDK9; cell material: Lysate mix) | pIC50 (Fyn; cell material: Jurkat lysate)
1 | C#CCNC(=O)c1cc(Nc2cc(C3CC3)[nH]n2)nc(N2CCN(Cc3ccc(S(=O)(=O)F)cc3)CC2)n1 | 6.27 | 6.67 | 5.72 | 6.22 | 5.8 | 4.72 | 5.16 | 6 | 4.89 | 5.25 | < 4.52 | < 4.52 | 4.85 | 5.9 | 5.9 | 6.24 | 5.81 | 6.16 | 
2 | C#CCNC(=O)c1cc(Nc2cc(C)[nH]n2)nc(N2CCN(Cc3ccc(S(=O)(=O)F)cc3)CC2)n1 | 5.78 |  |  | 5.94 |  |  | < 4.52 |  |  | < 4.52 | < 4.52 |  | < 4.52 |  | 5.93 |  |  | 4.84 | 
3 | Cc1cc(Nc2cc(C(=O)NCCNC(=O)OC3CC/C=C/CCC3)nc(N3CCN(Cc4ccc(S(=O)(=O)F)cc4)CC3)n2)n[nH]1 (stereo not given) | < 4.52 |  |  | 4.92 |  |  | < 4.52 |  |  | < 4.52 | < 4.52 |  | < 4.52 |  | 4.58 |  |  | < 4.52 | 
4 | O=C(NCCNC(=O)c1cc(Nc2cc(C3CC3)[nH]n2)nc(N2CCN(Cc3ccc(S(=O)(=O)F)cc3)CC2)n1)OC1CC/C=C/CCC1 (stereo not given) |  | 6.39 |  | 4.98 | 4.88 | < 4.52 | < 4.52 | 5.28 | < 4.52 | < 4.52 | < 4.52 | < 4.52 | < 4.52 | 5.1 | < 4.52 |  | < 4.52 | < 4.52 | < 4.52
5 | CCNC(=O)c1cc(Nc2cc(C)[nH]n2)nc(N2CCN(Cc3ccc(S(=O)(=O)F)cc3)CC2)n1 | 6.23 |  |  | 6.13 |  |  | < 4.52 |  |  |  | < 4.52 |  | < 4.52 |  | 6.74 |  |  | < 4.52 | 
6 | CCNC(=O)c1cc(Nc2cc(C3CC3)[nH]n2)nc(N2CCN(Cc3ccc(S(=O)(=O)F)cc3)CC2)n1 | 5.98 |  |  | 5.94 |  |  | 5.08 |  |  | 5.08 | < 4.52 |  | 4.9 |  | 5.81 |  |  | 4.73 | 
